In BindingDB's records for doi:10.1021/jm000991r (University of Bologna, 2001):

The compounds below were run against Cholinesterase (Homo sapiens, UniProt P06276) (assay: Inhibitory activity against butyrylcholinesterase (BChE) in human […]).
Cholinesterase, sequence (P06276 whole entry): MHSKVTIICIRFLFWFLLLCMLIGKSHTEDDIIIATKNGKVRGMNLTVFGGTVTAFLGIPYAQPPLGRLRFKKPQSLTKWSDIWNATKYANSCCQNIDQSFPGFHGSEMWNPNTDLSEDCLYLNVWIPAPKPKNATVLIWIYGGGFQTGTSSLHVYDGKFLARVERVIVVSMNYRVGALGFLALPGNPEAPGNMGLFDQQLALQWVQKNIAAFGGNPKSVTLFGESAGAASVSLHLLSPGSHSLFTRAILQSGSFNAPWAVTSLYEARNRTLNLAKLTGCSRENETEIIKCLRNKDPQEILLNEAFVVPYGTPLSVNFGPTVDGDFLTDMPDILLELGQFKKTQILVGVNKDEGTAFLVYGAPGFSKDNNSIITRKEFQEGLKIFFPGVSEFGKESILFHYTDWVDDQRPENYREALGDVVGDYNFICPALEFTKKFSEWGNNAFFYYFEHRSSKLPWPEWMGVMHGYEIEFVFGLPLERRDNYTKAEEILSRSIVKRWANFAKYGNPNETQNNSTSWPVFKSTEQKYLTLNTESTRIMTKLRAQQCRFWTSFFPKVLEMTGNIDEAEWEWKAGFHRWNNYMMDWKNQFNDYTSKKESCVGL

**Q.** With `CN1CC[C@H]2COc3c(O)cccc3[C@H]21` as the compound, how does the IC50 read?
**A.** 794 µM

**Q.** Which IC50 does the source give for `O=C(CCCCCCC(=O)NCCCCCCN1CC[C@H]2COc3ccccc3[C@H]21)NCCCCCCN1CC[C@H]2COc3ccccc3[C@H]21` here?
**A.** 0.912 µM

**Q.** For `CNC(=O)Oc1ccc2c(c1)[C@@H]1[C@@H](CCN1C)CO2`, which IC50 is on record?
**A.** 10.2 µM

**Q.** Which IC50 does the source give for `CNC(=O)Oc1ccc2c(c1)OC[C@@H]1CC[N+](C)(C)[C@H]21` here?
**A.** 2.95 µM

**Q.** For `CNC(=O)Oc1cccc2c1OC[C@@H]1CCN(C)[C@H]21` [(2S,6R)-3-methyl-8-oxa-3-azatricyclo[7.4.0.0^{2,6}]trideca-1(13),9,11-trien-10-yl N-methylcarbamate], which IC50 is on record?
**A.** 0.054 µM

**Q.** How did the IC50 turn out when `CNC(=O)Oc1ccc2c(c1)OC[C@@H]1CCN(C)[C@H]21` [(3aR,9bS)-1-methyl-1,2,3,3a,4,9b-hexahydrochromeno[4,3-b]pyrrol-7-yl methylcarbamate] was run?
**A.** 3.55 µM
